# In patent US8722849B2, “Polypeptides” (Novo Nordisk A/S, priority 2011, dated 2014):
# Read-outs that look alike come from different tables or passages of the source. Starred links: 1 amine or outer side, 2 acyl side, 3 side chain; linkers in the order of their positions; H or OH if unused. Positions of bridges follow the written chain, without caps; N, C: chain ends. Residues, ends and D or L forms follow the SMILES beside them. Groups on a side chain read outwards from the residue. *: point of attachment. C20 diacid = O=C(O)CCCCCCCCCCCCCCCCCCC(=O)*; γGlu = O=C(O)[C@H](CCC(=O)[*:2])N[*:1]; AEEA = NCCOCCOCC(=O)O
# Assay: Assay (IV) determination of solubility
# Assay type: physicochemical
# Method: ASSAY (IV)—Determination of Solubility
# The polypeptide was dissolved in water at ˜500 nmol/ml and mixed 1:1 with a series of buffers (100 mM glycylglycine pH 3.0, 100 mM glycylglycine pH 4.0, 100 mM glycylglycine pH 5.0, 100 mM bistrispropane pH 6.0, 100 mM bistrispropane pH 6.5, 100 mM bistrispropane pH 7.0, 100 mM bistrispropane pH 7.5, 100 mM bistrispropane pH 8.0). After 18 hours at room temperature the samples were centrifuged and the polypeptide concentration determined by HPLC.
# [1] = pH 3, pH 3.0, read-out: Solubility pH 3.0
# [2] = pH 4, pH 4.0, 18 hours at room temperature, Table 2, read-out: Solubility pH 4.0
# [3] = pH 4, pH 4.0, read-out: Solubility pH 4.0
# [4] = pH 5, pH 5.0, read-out: Solubility pH 5.0
# [5] = pH 6, pH 6.0, read-out: Solubility pH 6.0
# [6] = pH 6.5, pH 6.5, read-out: Solubility pH 6.5
# [7] = pH 7, pH 7.0, read-out: Solubility pH 7.0
# [8] = pH 7.5, pH 7.5, read-out: Solubility pH 7.5
# [9] = pH 8, pH 8.0, read-out: Solubility pH 8.0
Compound,solubility [1],solubility [2],solubility [3],solubility [4],solubility [5],solubility [6],solubility [7],solubility [8],solubility [9],"solubility (pH 7, pH 7.0, 18 hours at room temperature, Table 3, read-out: Solubility pH 7.0)"
"CC[C@H](C)[C@H](NC(=O)[C@@H]1CCCN1C(=O)CNC(=O)[C@H](Cc1ccccc1)NC(=O)[C@H](CC(N)=O)NC(=O)[C@H](CCCCNC(=O)COCCOCCNC(=O)COCCOCCNC(=O)CC[C@H](NC(=O)CCCCCCCCCCCCCCCCCCC(=O)O)C(=O)O)NC(=O)[C@H](CO)NC(=O)[C@H](CO)NC(=O)[C@H](CCCNC(=N)N)NC(=O)[C@H](Cc1c[nH]cn1)NC(=O)[C@H](CC(C)C)NC(=O)[C@H](Cc1ccccc1)NC(=O)[C@H](CCC(=O)O)NC(=O)[C@H](C)NC(=O)[C@H](CC(C)C)NC(=O)[C@H](CCCNC(=N)N)NC(=O)[C@H](CCC(N)=O)NC(=O)[C@@H](NC(=O)[C@H](C)NC(=O)[C@@H]1CSSC[C@H](NC(=O)[C@@H](N)CCCNC(=N)N)C(=O)N[C@@H](CC(N)=O)C(=O)N[C@@H]([C@@H](C)O)C(=O)N[C@@H](C)C(=O)N[C@@H]([C@@H](C)O)C(=O)N1)[C@@H](C)O)C(=O)N[C@@H](CC(C)C)C(=O)N1CCC[C@H]1C(=O)N1CCC[C@H]1C(=O)N[C@H](C(=O)N[C@@H](CC(N)=O)C(=O)N[C@H](C(=O)NCC(=O)N[C@@H](CO)C(=O)N[C@@H](CC(N)=O)C(=O)N[C@H](C(=O)N[C@@H](Cc1ccc(O)cc1)C(N)=O)[C@@H](C)O)C(C)C)[C@@H](C)O [Example 14, N-epsilon21-[2-(2-{2-[2-(2-{2-[(S)-4-Carboxy-4-(19-carboxyheptadecanoylamino)butyrylamino]ethoxy}ethoxy)acetylamino]ethoxy}ethoxy)acetyl]-[Arg1,Glu14,His17,Arg18,Lys21]-pramlintide] (H-RCNTATCATQRLAEFLHRSSK([AEEA-AEEA-γGlu-C20 diacid])NFGPILPPTNVGSNTY-NH2; disulfide 2-7)",> 200 µM,> 200 µM,> 200 µM,> 200 µM,192 µM,102 µM,13 µM,7 µM,47 µM,
"CC[C@H](C)[C@H](NC(=O)[C@@H]1CCCN1C(=O)CNC(=O)[C@H](Cc1ccccc1)NC(=O)[C@H](CC(N)=O)NC(=O)[C@H](CCCCNC(=O)COCCOCCNC(=O)COCCOCCNC(=O)CC[C@H](NC(=O)CCCCCCCCCCCCCCCCCCC(=O)O)C(=O)O)NC(=O)[C@H](CO)NC(=O)[C@H](CO)NC(=O)[C@H](Cc1c[nH]cn1)NC(=O)[C@@H](NC(=O)[C@H](CC(C)C)NC(=O)[C@H](Cc1ccccc1)NC(=O)[C@H](CCC(=O)O)NC(=O)[C@H](C)NC(=O)[C@H](CC(C)C)NC(=O)[C@H](CCCNC(=N)N)NC(=O)[C@H](CCC(N)=O)NC(=O)[C@@H](NC(=O)[C@H](C)NC(=O)[C@@H]1CSSC[C@H](NC(=O)[C@@H](N)CCCCN)C(=O)N[C@@H](CC(N)=O)C(=O)N[C@@H]([C@@H](C)O)C(=O)N[C@@H](C)C(=O)N[C@@H]([C@@H](C)O)C(=O)N1)[C@@H](C)O)C(C)C)C(=O)N[C@@H](CC(C)C)C(=O)N[C@@H](CO)C(=O)N[C@@H](CO)C(=O)N[C@H](C(=O)N[C@@H](CC(N)=O)C(=O)N[C@H](C(=O)NCC(=O)N[C@@H](CO)C(=O)N[C@@H](Cc1c[nH]cn1)C(=O)N[C@H](C(=O)N[C@@H](Cc1ccc(O)cc1)C(N)=O)[C@@H](C)O)C(C)C)[C@@H](C)O [Example 131, N-epsilon21-[2-(2-{2-[2-(2-{2-[(S)-4-Carboxy-4-(19-carboxyheptadecanoylamino)butyrylamino]ethoxy}ethoxy)acetylamino]ethoxy}ethoxy)acetyl]-[Glu14,Lys21,Ser28,Ser29,His35]-pramlintide] (H-KCNTATCATQRLAEFLVHSSK([AEEA-AEEA-γGlu-C20 diacid])NFGPILSSTNVGSHTY-NH2; disulfide 2-7)",> 200 µM,172 µM,172 µM,150 µM,25 µM,27 µM,6 µM,4 µM,3 µM,

# Next, values leading:
solubility [1],solubility [2],solubility [3],solubility [4],solubility [5],solubility [6],solubility [7],solubility [8],solubility [9],"solubility (pH 7, pH 7.0, 18 hours at room temperature, Table 3, read-out: Solubility pH 7.0)",Compound
> 200 µM,> 200 µM,> 200 µM,> 200 µM,> 200 µM,105 µM,37 µM,57 µM,117 µM,,"CC[C@H](C)[C@H](NC(=O)[C@@H]1CCCN1C(=O)CNC(=O)[C@H](Cc1ccccc1)NC(=O)[C@H](CC(N)=O)NC(=O)[C@H](CO)NC(=O)[C@H](CO)NC(=O)[C@H](CO)NC(=O)[C@H](Cc1c[nH]cn1)NC(=O)[C@H](Cc1c[nH]cn1)NC(=O)[C@H](CC(C)C)NC(=O)[C@H](Cc1ccccc1)NC(=O)[C@H](CCC(=O)O)NC(=O)[C@H](C)NC(=O)[C@H](CC(C)C)NC(=O)[C@H](CCCNC(=N)N)NC(=O)[C@H](CCC(N)=O)NC(=O)[C@@H](NC(=O)[C@H](C)NC(=O)[C@@H]1CSSC[C@H](NC(=O)[C@H](CCCCN)NC(=O)COCCOCCNC(=O)COCCOCCNC(=O)CC[C@H](NC(=O)CCCCCCCCCCCCCCCCCCC(=O)O)C(=O)O)C(=O)N[C@@H](CC(N)=O)C(=O)N[C@@H]([C@@H](C)O)C(=O)N[C@@H](C)C(=O)N[C@@H]([C@@H](C)O)C(=O)N1)[C@@H](C)O)C(=O)N[C@@H](CC(C)C)C(=O)N1CCC[C@H]1C(=O)N1CCC[C@H]1C(=O)N[C@H](C(=O)N[C@@H](CC(N)=O)C(=O)N[C@H](C(=O)NCC(=O)N[C@@H](CO)C(=O)N[C@@H](Cc1c[nH]cn1)C(=O)N[C@H](C(=O)N[C@@H](Cc1ccc(O)cc1)C(N)=O)[C@@H](C)O)C(C)C)[C@@H](C)O [Example 118, N-alpha-[2-(2-{2-[2-(2-{2-[(S)-4-Carboxy-4-(19-carboxyheptadecanoylamino)butyrylamino]ethoxy}ethoxy)acetylamino]ethoxy}ethoxy)acetyl]-[Glu14,His17,Ser21,His35]-pramlintide] ({C20 diacid-γGlu-AEEA-AEEA}-KCNTATCATQRLAEFLHHSSSNFGPILPPTNVGSHTY-NH2; disulfide 2-7)"
> 200 µM,> 200 µM,> 200 µM,> 200 µM,32 µM,3 µM,13 µM,114 µM,> 200 µM,,"CC[C@H](C)[C@H](NC(=O)[C@@H]1CCCN1C(=O)CNC(=O)[C@H](Cc1ccccc1)NC(=O)[C@H](CC(N)=O)NC(=O)[C@H](CO)NC(=O)[C@H](CO)NC(=O)[C@H](CO)NC(=O)[C@H](Cc1c[nH]cn1)NC(=O)[C@H](Cc1c[nH]cn1)NC(=O)[C@H](CC(C)C)NC(=O)[C@H](Cc1ccccc1)NC(=O)[C@H](CCC(=O)O)NC(=O)[C@H](C)NC(=O)[C@H](CC(C)C)NC(=O)[C@H](CCCNC(=N)N)NC(=O)[C@H](CCC(N)=O)NC(=O)[C@@H](NC(=O)[C@H](C)NC(=O)[C@@H]1CSSC[C@H](NC(=O)[C@H](Cc2c[nH]cn2)NC(=O)COCCOCCNC(=O)COCCOCCNC(=O)CC[C@H](NC(=O)CCCCCCCCCCCCCCCCCCC(=O)O)C(=O)O)C(=O)N[C@@H](CC(N)=O)C(=O)N[C@@H]([C@@H](C)O)C(=O)N[C@@H](C)C(=O)N[C@@H]([C@@H](C)O)C(=O)N1)[C@@H](C)O)C(=O)N[C@@H](CC(C)C)C(=O)N1CCC[C@H]1C(=O)N1CCC[C@H]1C(=O)N[C@H](C(=O)N[C@@H](CC(N)=O)C(=O)N[C@H](C(=O)NCC(=O)N[C@@H](CO)C(=O)N[C@@H](Cc1c[nH]cn1)C(=O)N[C@H](C(=O)N[C@@H](Cc1ccc(O)cc1)C(N)=O)[C@@H](C)O)C(C)C)[C@@H](C)O [Example 119, N-alpha-[2-(2-{2-[2-(2-{2-[(S)-4-Carboxy-4-(19-carboxyheptadecanoylamino)butyrylamino]ethoxy}ethoxy)acetylamino]ethoxy}ethoxy)acetyl]-[His1,Glu14,His17,Ser21,His35]-pramlintide] ({C20 diacid-γGlu-AEEA-AEEA}-HCNTATCATQRLAEFLHHSSSNFGPILPPTNVGSHTY-NH2; disulfide 2-7)"
> 200 µM,> 200 µM,> 200 µM,> 200 µM,> 200 µM,> 200 µM,> 200 µM,> 200 µM,> 200 µM,> 200 µM,"CC[C@H](C)[C@H](NC(=O)[C@@H]1CCCN1C(=O)CNC(=O)[C@H](Cc1ccccc1)NC(=O)[C@H](CC(N)=O)NC(=O)[C@H](CCCCNC(=O)COCCOCCNC(=O)COCCOCCNC(=O)CC[C@H](NC(=O)CCCCCCCCCCCCCCCCCCC(=O)O)C(=O)O)NC(=O)[C@H](CO)NC(=O)[C@H](CO)NC(=O)[C@H](Cc1c[nH]cn1)NC(=O)[C@@H](NC(=O)[C@H](CC(C)C)NC(=O)[C@H](Cc1ccccc1)NC(=O)[C@H](CCC(=O)O)NC(=O)[C@H](C)NC(=O)[C@H](CC(C)C)NC(=O)[C@H](CCCNC(=N)N)NC(=O)[C@H](CCC(N)=O)NC(=O)[C@@H](NC(=O)[C@H](C)NC(=O)[C@@H]1CSSC[C@H](NC(=O)[C@@H](N)CCCCN)C(=O)N[C@@H](CC(N)=O)C(=O)N[C@@H]([C@@H](C)O)C(=O)N[C@@H](C)C(=O)N[C@@H]([C@@H](C)O)C(=O)N1)[C@@H](C)O)C(C)C)C(=O)N[C@@H](CC(C)C)C(=O)N1CCC[C@H]1C(=O)N[C@@H](CO)C(=O)N[C@H](C(=O)N[C@@H](CC(N)=O)C(=O)N[C@H](C(=O)NCC(=O)N[C@@H](CO)C(=O)N[C@@H](Cc1c[nH]cn1)C(=O)N[C@H](C(=O)N[C@@H](Cc1ccc(O)cc1)C(N)=O)[C@@H](C)O)C(C)C)[C@@H](C)O [Example 127, N-epsilon21-[2-(2-{2-[2-(2-{2-[(S)-4-Carboxy-4-(19-carboxyheptadecanoylamino)butyrylamino]ethoxy}ethoxy)acetylamino]ethoxy}ethoxy)acetyl]-[Glu14,Lys21,Ser29,His35]-pramlintide] (H-KCNTATCATQRLAEFLVHSSK([AEEA-AEEA-γGlu-C20 diacid])NFGPILPSTNVGSHTY-NH2; disulfide 2-7)"
